Source: patent US11691972B2, “Compounds for targeted degradation of BRD9” (C4 Therapeutics, Inc., priority 2020, dated 2023)

The molecules below were run against T1, BRD9 (Homo sapiens, UniProt Q9H8M2) (assay: HiBiT BRD9 degradation assay in 293T.166 (BRD9-HiBiT) cells). Settings: Table 1; 293T.166 cells, 2.0 hours; class symbols; read-out: HiBiT-Degradation 293T.166 BRD9 2.0 hours (DC50).
T1 sequence (Q9H8M2 1-597): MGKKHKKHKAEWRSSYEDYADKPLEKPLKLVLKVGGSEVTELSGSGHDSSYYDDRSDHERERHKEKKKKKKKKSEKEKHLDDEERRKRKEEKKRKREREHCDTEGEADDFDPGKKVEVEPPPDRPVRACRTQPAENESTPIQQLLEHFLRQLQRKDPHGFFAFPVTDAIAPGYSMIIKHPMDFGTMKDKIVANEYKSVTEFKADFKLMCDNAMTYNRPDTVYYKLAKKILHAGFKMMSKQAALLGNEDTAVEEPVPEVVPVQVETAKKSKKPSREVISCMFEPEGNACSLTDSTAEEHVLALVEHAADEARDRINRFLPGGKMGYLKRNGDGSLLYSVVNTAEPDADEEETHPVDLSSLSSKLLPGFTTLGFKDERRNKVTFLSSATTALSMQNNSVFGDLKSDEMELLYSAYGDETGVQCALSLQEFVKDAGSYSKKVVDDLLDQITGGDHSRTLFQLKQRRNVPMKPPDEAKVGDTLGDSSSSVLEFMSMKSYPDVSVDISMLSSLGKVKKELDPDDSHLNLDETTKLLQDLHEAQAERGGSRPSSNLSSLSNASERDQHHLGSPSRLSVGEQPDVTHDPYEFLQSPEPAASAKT
Format: cell-based
Parameters: endogenously expressing BRD9 with HiBiT fusion tag via CRISPR; host or cells: 293T.166 (BRD9-HiBiT), also expressing LgBiT ectopically
Summary of the method: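 Luminescence from the Nano-Glo HiBiT lytic reagent quantified BRD9 loss after compounds (top 10 μM, half-log, 11 points, duplicates) were incubated 2 h at 37° C. with 10,000 293T.166 BRD9-HiBiT/LgBiT cells per well, with controls lacking compound or lacking reagent.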

DC50 [nM]	Compound
< 100	COc1cc(-c2cn(C)c(=O)c3cnccc23)cc(OC)c1CN1CCc2c(CC3CCN(c4ccc(NC5CCC(=O)NC5=O)cc4C(F)(F)F)CC3)cccc2C1 (stereo not drawn) [Compound 237]
< 100	COc1cc(-c2cn(C)c(=O)c(C)c2C)cc(OC)c1C(=O)N1CCc2c(CC3CCN(c4ccc(NC5CCC(=O)NC5=O)cc4C(F)(F)F)CC3)cccc2C1 (stereo not drawn) [Compound 238]
< 100	COc1cc(-c2cn(C)c(=O)c3cnccc23)cc(Cl)c1C(=O)N1CCc2c(CC3CCN(c4ccc(NC5CCC(=O)NC5=O)cc4F)CC3)ccc(F)c2C1 (stereo not drawn) [Compound 239, 3-[4-[4-[[2-[2-chloro-6-methoxy-4-(2-methyl-1-oxo-2,7-naphthyridin-4-yl)benzoyl]-8-fluoro-3,4-dihydro-1H-isoquinolin-5-yl]methyl]-1-piperidyl]-3-fluoro-anilino]piperidine-2,6-dione]
< 100	COc1cc(-c2cn(C)c(=O)c3[nH]ncc23)cc(Cl)c1C(=O)N1CCc2c(CC3CCN(c4ccc(NC5CCC(=O)NC5=O)cc4F)CC3)ccc(F)c2C1 (stereo not drawn) [Compound 240]
< 100	COc1cc(-c2cn(C)c(=O)c3cnccc23)cc(Cl)c1C(=O)N1CCC(CCC2CCN(c3ccc(NC4CCC(=O)NC4=O)cc3F)CC2)CC1 (stereo not drawn) [Compound 241, 3-[4-[4-[2-[1-[2-chloro-6-methoxy-4-(2-methyl-1-oxo-2,7-naphthyridin-4-yl)benzoyl]-4-piperidyl]ethyl]-1-piperidyl]-3-fluoro-anilino]piperidine-2,6-dione]
< 100	COc1cc(-c2cn(C)c(=O)c3cnccc23)cc(Cl)c1C(=O)N1CCC(CCC2CCN(c3ccc(NC4CCC(=O)NC4=O)cc3C(F)(F)F)CC2)CC1 (stereo not drawn) [Compound 242]
< 100	COc1cc(-c2cn(C)c(=O)c(C)c2C)cc(Cl)c1C(=O)N1CCC(CCC2CCN(c3ccc(NC4CCC(=O)NC4=O)cc3F)CC2)CC1 (stereo not drawn) [Compound 243]

The remaining lines, values behind:

Compound	DC50 [nM]
COc1cc(-c2cn(C)c(=O)c(C)c2C)cc(Cl)c1C(=O)N1CCC(N2CCC(c3ccc(NC4CCC(=O)NC4=O)cc3)C(F)(F)C2)CC1 (stereo not drawn) [Compound 229]	< 100
COc1cc(-c2cn(C)c(=O)c3cnccc23)cc(Cl)c1CN1CCC(N2CCN(c3ccc(OC4CCC(=O)NC4=O)cc3F)CC2)C(F)(F)C1 (stereo not drawn) [Compound 230, 3-[4-[4-[1-[[2-chloro-6-methoxy-4-(2-methyl-1-oxo-2,7-naphthyridin-4-yl)phenyl]methyl]-3,3-difluoro-4-piperidyl]piperazin-1-yl]-3-fluoro-phenoxy]piperidine-2,6-dione]	< 100
COc1cc(-c2cn(C)c(=O)c3cnccc23)cc(OC)c1CN1CCc2cc(C3CCN(c4ccc(NC5CCC(=O)NC5=O)cc4C(F)(F)F)CC3)ccc2C1 (stereo not drawn) [Compound 231, 3-[4-[4-[2-[[2,6-dimethoxy-4-(2-methyl-1-oxo-2,7-naphthyridin-4-yl)phenyl]methyl]-3,4-dihydro-1H-isoquinolin-6-yl]-1-piperidyl]-3-(trifluoromethyl)anilino]piperidine-2,6-dione]	< 100
COc1cc(-c2cn(C)c(=O)c3cnccc23)cc(Cl)c1C(=O)N1CCC(CC(=O)N2CCC(c3ccc(NC4CCC(=O)NC4=O)cc3)CC2)CC1 (stereo not drawn) [Compound 232, 3-[4-[1-[2-[1-[2-chloro-6-methoxy-4-(2-methyl-1-oxo-2,7-naphthyridin-4-yl)benzoyl]-4-piperidyl]acetyl]-4-piperidyl]anilino]piperidine-2,6-dione]	< 100
COc1cc(-c2cn(C)c(=O)c3[nH]ncc23)cc(Cl)c1C(=O)N1CCC(CC(=O)N2CCC(c3ccc(NC4CCC(=O)NC4=O)cc3)CC2)CC1 (stereo not drawn) [Compound 233]	< 100
COc1cc(-c2cn(C)c(=O)c3cnccc23)cc(OC)c1C(=O)N1Cc2cccc(CC3CCN(c4ccc(NC5CCC(=O)NC5=O)cc4F)CC3)c2C(F)(F)C1 (stereo not drawn) [Compound 234]	< 100
COc1cc(-c2cn(C)c(=O)c3cnccc23)cc(Cl)c1C(=O)N1CCc2c(CC3CCN(c4ccc(NC5CCC(=O)NC5=O)cc4F)CC3)cccc2C1 (stereo not drawn) [Compound 235]	< 100
COc1cc(-c2cn(C)c(=O)c3cnccc23)cc(Cl)c1C(=O)N1CCc2c(CN3CCC(c4ccc(NC5CCC(=O)NC5=O)cc4)C(F)(F)C3)cccc2C1 (stereo not drawn) [Compound 236]	< 100
